Assay [1] relates to NCI-1H226. The experiment in a line: Mesothelioma cell line proliferation assay, H226 (ATPlite). Format: cell-based. As to conditions: Homo sapiens, NCI-H226, 144 h, 6 days with compound. The method, then:
(§1) Mesothelioma cell lines, NCI-1H226 and NCI-1H2052 (all sourced from the ATCC cell culture collection) are plated in 96-well plates (Corning® 96 Well White Polystyrene Microplate clear flat bottom, white polystyrene (TC-Treated)), at 1500 cells/well in full medium (RPMI 1640 ATCC modification with L-glutamine, HEPES, Phenol Red, Sodium Pyruvate, High glucose, Low sodium bicarbonate and 10% fetal bovine serum). Cells are incubated overnight at 37° C. in an incubator with 5% C02. Then compounds, dissolved in DMSO, are added in dose-response. Cells are incubated with compound dilutions for another 6 days at 37° C. in an incubator with 5% C02. Cell viability is quantitated using the ATPlite kit (Perkin-Elmer) and the luminescence is read-out using an Envision instrument (Perkin-Elmer). The amount of relative light units produced using the ATPlite kit is used to calculated percent of inhibition.
(§2) The activities of some example compounds are depicted in the table below. The activity ranges A, B and C refer to EC50 values in the mesothelioma cell line proliferation assay as described as follows: “A”: EC50<1 μM; “B”: 1 μM s EC50≤10 μM and “C”: EC50≥10 μM; NT: not tested.

For assay [2], the system named is YAP/TAZ-TEAD transcription. Description: Reporter gene assay for measuring the inhibition of YAP/TAZ-TEAD transcription (TEAD-responsive element luciferase reporter in Hek293T cells). The class given is cell-based. As to conditions: Homo sapiens, HEK-293T, 24 h, Hek293T cells transiently transfected with TEAD-responsive element luciferase reporter; 24 hours incubation. Summed up:
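Hek293T cells transiently transfected with a TEAD-responsive element luciferase reporter, plated onto pre-diluted compounds and incubated 24 h at 37 °C/5% CO2. Luminescence read after SteadyLite addition; % inhibition from RLU relative to vehicle (0%) and a positive control inhibitor (100%), giving IC50.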

Assay [3] deals with NCI-1H2052. Description: Mesothelioma cell line proliferation assay, H2052 (ATPlite). Format: cell-based. As to conditions: Homo sapiens, NCI-H2052, 144 h, 6 days with compound, read-out: H2025 (EC50). The method, then: as §1, §2
The test system of assay [4] is NCI-H226 tumor cells. The experiment in a line: In vivo efficacy in a subcutaneous human lung cancer xenograft model (NCI-H226 mesothelioma). Also on record: species or system Female BALB/c Nude Mice. As to conditions: 100 mg/kg, p.o., BID × 21 days. The method, then: The NCI-H226 tumor cells were maintained in vitro with RPMI-1640 medium supplemented with 10% fetal bovine serum at 37° C. in an atmosphere of 5% CO2 in air. The cells in exponential growth phase were harvested and the cell numbers were quantitated by hemocytometer and cell viability was quantified by Trypan Blue counting before tumor inoculation. Balb/c nude mouse were inoculated with subcutaneously in the right front flank regions with 1×10^7 of NCI-H226 tumor cells in 0.1 mL of PBS mixed with 0.1 ml of Matrigel (1:1) for tumor development. All animals were randomized based on the tumor sizes as well as body weights and randomly allocated to the different study groups (8 mice per group). The randomization started when the mean tumor size at the right rear flank region had reached approximately 172 mm^3. The date of randomization was denoted as Day 0.
Cpd. No. 084 was formulated in Vehicle 1 (PEG400 (40%)+PG (30%)+WFI (30%)) as a 10 mg/ml solution, and dosed orally, twice daily, using 10 μl/g (final dose is 100 mg/kg) for 21 days. Cpd. No. 001 was formulated in Vehicle 2 (PEG400 (65%)+PG (20%)+WFI (15%)) as a 10 mg/ml solution, and dosed orally, twice daily, using 10 μl/g (final dose is 100 mg/kg) for 21 days. After tumor cell inoculation, the animals were checked daily for morbidity and mortality. At the time of routine monitoring, the animals were checked for any effects of tumor growth and treatments on behavior such as mobility, food and water consumption, body weight gain/loss (body weight was measured at least two times per week), and any other abnormalities. Mortality and observed clinical signs were recorded for individual animals. Tumor volumes were measured at least two times weekly in two dimensions using a caliper, and the volume was expressed in mm^3 using the formula: V=(L×W×W)/2, where V is tumor volume, L is tumor length (the longest tumor dimension) and W is tumor width (the longest tumor dimension perpendicular to L).
Tumor growth inhibition (TGI) was used as an indicator of antitumor activities, and was calculated from the relative tumor volumes of the control and treatment groups due to the variance of tumor volumes among groups at Day 0. TGI (%)=(1-T/C)×100%; T/C=MTVt/MTVc, MTVt: mean tumor volume in the treatment groups at a specific measurement day, MTVc: mean tumor volume in the control group at a specific measurement day. Moreover, the difference of TGIs between control and treatment groups was analyzed at a measurement day when all or most of the mice in the control groups were alive. In addition, body weight changes over time in each group were used as an index to evaluate the tolerability of test drugs, and were calculated from the average percentage of body weight changes of each individual mouse relative to their initial body weight at randomization using the following formula: group BW %=mean of ((BWt−BW0)/BW0×100%), BWt: body weight at Day t, BW0: body weight at Day 0.
To compare relative tumor volumes of different groups at a pre-specified day, we first used Bartlett's test to check the assumption of homogeneity of variance across all groups. When the p-value of Bartlett's test is >0.05, we run one-way ANOVA to test overall equality of means across all groups. If the p-value of the one-way ANOVA is <0.05, we further perform post hoc testing by running Tukey's HSD (honest significant difference) tests for all pairwise comparisons, and Dunnett's tests for comparing each treatment group with the vehicle group. When the p-value of Bartlett's test is <0.05, we run Kruskal-Wallis test to test overall equality of medians among all groups. If the p-value of the Kruskal-Wallis test is <0.05, we further perform post hoc testing by running Conover's non-parametric test for all pairwise comparisons or for comparing each treatment group with the vehicle group, both with single-step p-value adjustment. All tests were two-sided unless otherwise specified, and p-values<0.05 were regarded as statistically significant. […]

Setting [5] is: day 20, against the compound's own vehicle group.

Consider `C=CC(=O)NC1Cc2c(N)cccc2N(c2ccc(C(F)(F)F)cc2)C1` (stereo not drawn) [compound 075, N-(5-amino-1-(4-(trifluoromethyl)phenyl)-1,2,3,4-tetrahydroquinolin-3-yl)acrylamide], for which the EC50 in assay [1] and in assay [3] was under 1000 nM throughout. This molecule yielded an IC50 in assay [2] of under 1000 nM.
Take `C=CC(=O)NC1Cc2c(NCCOC)cccc2N(c2ccc(C(F)(F)F)cc2)C1` (stereo not drawn) [compound 077, N-(5-((2-methoxyethyl)amino)-1-(4-(trifluoromethyl)phenyl)-1,2,3,4-tetrahydroquinolin-3-yl)acrylamide]: the EC50 in assay [1] and in assay [3] was under 1000 nM throughout. Besides, in assay [2], the half-inhibitory concentration (IC50) was under 1000 nM.
Turning to `C=CC(=O)NC1Cc2c(C#N)cccc2N(c2ccc(C(F)(F)F)cc2)C1` (stereo not drawn) [compound 078, N-(5-cyano-1-(4-(trifluoromethyl)phenyl)-1,2,3,4-tetrahydroquinolin-3-yl)acrylamide], the concentration for a half-maximal effect (EC50) in assay [1] and in assay [3] was under 1000 nM throughout. For the same molecule, in assay [2], the half-inhibitory concentration (IC50) was under 1000 nM.
As for `C=CC(=O)NC1Cc2ncccc2N(c2ccc(C(F)(F)F)cc2)C1` (stereo not drawn) [compound 080, N-(1-(4-(trifluoromethyl)phenyl)-1,2,3,4-tetrahydro-1,5-naphthyridin-3-yl)acrylamide], the EC50 in assay [1] and in assay [3] was under 1000 nM each time. Further, the half-inhibitory concentration (IC50) in assay [2] was under 1000 nM.
As to `C=CC(=O)NC1Cc2cccnc2N(c2ccc(C(F)(F)F)cc2)C1` (stereo not drawn) [compound 081, N-(1-(4-(trifluoromethyl)phenyl)-1,2,3,4-tetrahydro-1,8-naphthyridin-3-yl)acrylamide], the 50% effective concentration (EC50) in assay [1] and in assay [3] was under 1000 nM each time. Besides, the concentration for half-maximal inhibition (IC50) in assay [2] is under 1000 nM.
For `C=CC(=O)NC1Cc2ccncc2N(c2ccc(C(F)(F)F)cc2)C1` (stereo not drawn) [compound 083, N-(1-(4-(trifluoromethyl)phenyl)-1,2,3,4-tetrahydro-1,7-naphthyridin-3-yl)acrylamide], the EC50 in assay [1] and in assay [3] was under 1000 nM in each case. In assay [2], this molecule gave an IC50 of under 1000 nM.
Consider `C=CC(=O)NCC1Cc2ccccc2N(c2ccc(C(F)(F)F)cc2)C1` (stereo not drawn) [compound 084, N-((1-(4-(trifluoromethyl)phenyl)-1,2,3,4-tetrahydroquinolin-3-yl)methyl)acrylamide], for which the concentration for a half-maximal effect (EC50) in assay [1] is under 1000 nM. In assay [2], this molecule had an IC50 of under 1000 nM. Also, in assay [4], the “anti-tumor activity in the xenograft mesothelioma model” value is “highly statistically significant and strong anti-tumor activity”. In addition, the “Mean Tumor Volume (mm^3) on day 20” value in assay [4] (day 20, 8 mice per group) is reported as 165.82 ± 15.42 (8) mm^3. In addition, in assay [4] (setting [5]), the “T/C (%)” value is reported as 38.95% and the “TGI (%)” value came out at 61.05%.
In the case of `C=CC(=O)NC1Cc2c(CO)cccc2N(c2ccc(C(F)(F)F)cc2)C1` (stereo not drawn) [compound 139, N-(5-(hydroxymethyl)-1-(4-(trifluoromethyl)phenyl)-1,2,3,4-tetrahydroquinolin-3-yl)acrylamide], the concentration giving a half-maximal response (EC50) in assay [1] and in assay [3] was under 1000 nM each time. In assay [2], this molecule yielded a 50% inhibitory concentration (IC50) of under 1000 nM.
In the case of `C=CC(=O)NC1Cc2ccccc2N(c2ccc(C#N)cc2)C1` (stereo not drawn) [compound 142, N-(1-(4-cyanophenyl)-1,2,3,4-tetrahydroquinolin-3-yl)acrylamide], the half-maximal effective concentration (EC50) in assay [1] and in assay [3] was under 1000 nM throughout. In addition, the IC50 in assay [2] was under 1000 nM.
Consider `C=CC(=O)NCC1Cc2ccccc2N([C@H]2CC[C@H](C(F)(F)F)CC2)C1` (stereo partly drawn) [compound 143, trans-N-((1-(4-(trifluoromethyl)cyclohexyl)-1,2,3,4-tetrahydroquinolin-3-yl)methyl)acrylamide], for which the EC50 in assay [1] and in assay [3] was under 1000 nM each time. In assay [2], this molecule returned an IC50 of under 1000 nM.
For `C=CC(=O)NCC1Cc2ccccc2N(c2ccc(C#N)cc2)C1` (stereo not drawn) [compound 147, N-((1-(4-cyanophenyl)-1,2,3,4-tetrahydroquinolin-3-yl)methyl)acrylamide], the EC50 in assay [1] and in assay [3] was under 1000 nM each time. Moreover, the half-inhibitory concentration (IC50) in assay [2] was under 1000 nM.
For `C=CC(=O)NCC1Cc2ccccc2N(c2ccc(C(F)F)nc2)C1` (stereo not drawn) [compound 149, N-((1-(6-(difluoromethyl)pyridin-3-yl)-1,2,3,4-tetrahydroquinolin-3-yl)methyl)acrylamide], the concentration giving a half-maximal response (EC50) in assay [1] and in assay [3] was 1000 to 10000 nM in each case. The IC50 in assay [2] is under 1000 nM.
In the case of `CC(=O)NCC1Cc2c(N)cccc2N(c2ccc(C(F)(F)F)cc2)C1` (stereo not drawn) [compound 150, N-((5-amino-1-(4-(trifluoromethyl)phenyl)-1,2,3,4-tetrahydroquinolin-3-yl)methyl)acetamide], the 50% effective concentration (EC50) in assay [1] and in assay [3] was under 1000 nM in each case. The half-maximal inhibitory concentration (IC50) in assay [2] was under 1000 nM.
`C=CC(=O)NC1Cc2c(CC#N)cccc2N(c2ccc(C(F)(F)F)cc2)C1` (stereo not drawn) [compound 164, N-(5-(cyanomethyl)-1-(4-(trifluoromethyl)phenyl)-1,2,3,4-tetrahydroquinolin-3-yl)acrylamide]: the half-maximal effective concentration (EC50) in assay [1] and in assay [3] was under 1000 nM in each case. In assay [2], this molecule showed an IC50 of under 1000 nM.

Source of the values: patent publication US20240025856A1, “1,2,3,4-TETRAHYDROQUINOLINE DERIVATIVES AS INHIBITORS OF THE YAP/TAZ-TEAD ACTIVATION FOR TREATING CANCER” (KATHOLIEKE UNIVERSITEIT LEUVEN, priority 2020, published 2024).
